Counter-ions that a name gives are not always drawn. Like-named read-outs stand apart in the source and are kept apart here. Marks after values point to notes of the source that are not given here.
How the values were obtained:
[1] = test system: basal gastric acid secretion in rats; assay: Inhibitory test of basal gastric acid secretion in pylorus-ligated rats after intragastric administration; type: in vivo, SD rats; conditions: for Inhibitory rate (basal gastric acid secretion) / Amount of gastric juice / Total acid amount of the gastric juice: n = 10; for Amount of gastric juice: pylorus ligation 1 h after administration, gastric juice collected after 4 h; for Amount of gastric juice / Total acid amount of the gastric juice: X ± S; for Total acid amount of the gastric juice: titration with 0.01 mol/L NaOH; for Effect on the total acid amount of the gastric juice as compared with the model control group: I-1a 2 mg/kg and 1 mg/kg, vonoprazan fumarate 2 mg/kg, P<0.05 or P<0.01
Text: An equal amount of deuterated vonoprazan fumarate derivatives I-1a, I-2a, I-3a and I-4a prepared and obtained in the Examples and vonoprazan fumarate (vonoprazan was 1-[5-(2-fluorophenyl)-1-(pyridin-3-yl-sulfonyl)-1H-pyrrol-3-yl]-N-methylmethanamine) were taken respectively and subjected to the inhibitory activity test on gastric acid secretion in rats.
SD rats which were SPF grade and weighed 180 to 200 g were selected and used in this experiment. The rats were grouped randomly with 10 rats in each group (half male and half female). Animals were fasted but free to access water for 16 hours. 1 hour after administration, the animals were anesthetized with isoflurane and fixed in a supine position. The abdomen was shaved and disinfected routinely. A 1.5 cm incision was made along the midline and below the xiphoid, the stomach was taken gently, the gastric pylorus was ligated with surgical suture at the junction of the stomach pylorus and the duodenum, and the incision was sutured. The animals were fasted and water-deprived after the surgery. After 4 hours, the animals were anesthetized by intra-abdominally injecting 1% sodium pentobarbital. The incision was opened, and the gastric cardia was ligated. The stomach was taken out and cut open along the greater curvature of stomach. The gastric juice was collected and centrifuged at 3000 rpm for 10 minutes. The supernatant was aspirated and the volume of the gastric juice was measured. 0.5 mL of the gastric juice was taken and placed in a small conical flask, a drop of phenolphthalein indicator was added, and the mixture was titrated with 0.01 mol/L sodium hydroxide until the red color appeared (the color was no longer deepened) as the endpoint. The total amount of gastric acid was calculated according to the following formula. The average secretion amount of the gastric juice and the total acid amount of the gastric juice of each administered group and the model control group were subjected to statistical tests.
The inhibitory test of basal gastric acid secretion in rats was carried out after intragastric administration of the vonoprazan fumarate derivatives and vonoprazan fumarate, and the results were as shown in Table 1 and FIG. 1. […] The inhibitory effects of the vonoprazan fumarate derivative (Compound I-1a) with a dosage of 2 mg/kg on the secretion amount of gastric juice and the total acid amount of the gastric juice in rats were stronger than that of the same dosage (2 mg/kg) of vonoprazan fumarate, and there was a significant difference between the two (P<0.05). As compared with vonoprazan fumarate, the vonoprazan fumarate derivatives had stronger inhibitory effect on the gastric acid secretion in rats at the same dosage.

[2] = Pharmacokinetic experiment in rats after single intragastric administration (plasma LC-MS/MS); type: in vivo; conditions: both sexes, SD, rat, po, 2 mg/kg intragastric; for AUC(0-inf) / Cmax / Tmax / half-life: n = 6; for bioavailability: n = 6, read-out: F (absolute bioavailability); for AUC(0-t): 2 mg/kg
Experimental: An equal amount of Compound I-1a (1-[5-(2-fluorophenyl)-1-(pyridin-3-yl-sulfonyl)-1H-pyrrol-3-yl]-N-methyldideuteromethanamine fumarate) prepared and obtained in the Example and vonoprazan fumarate were taken respectively and subjected to a pharmacokinetic experiment.
Drug formulating manner: 16 mg of the drug (the vonoprazan fumarate derivatives or vonoprazan fumarate) was weighed and taken, and dissolved in 2 mL of N-methylpyrrolidone. 38 mL of 5% glucose injection was further added thereto to prepare a dosing solution with a concentration of 0.4 mg/mL and the dosing solution was administered by intragastric administration.
Intragastric administration: 6 SD rats (half male and half female) were taken and orally administered as a single dose (2 mg/kg). Blood samples was collected after administration, and the time points of blood collection were 0.083 hours, 0.25 hours, 0.5 hours, 1 hour, 2 hours, 3 hours, 4 hours, 6 hours, 8 hours, 12 hours, 24 hours, 36 hours, and 48 hours after the administration.
Sample collection: 200 μL of whole blood was taken at each time point of blood collection, heparin was added for anticoagulation, and the mixture was centrifuged at 12000 rpm for 5 min at 4° C. 50 μL of the plasma was taken and placed in a polypropylene tube, and the rest was used for backup and stored at −20° C. to be tested.
Plasma treatment method: To 50 μL of rat plasma anticoagulated by heparin, 50 μL of methanol and […], of a solution of the internal standard etofesalamide in methanol (10 ng/mL) were added. The mixture was vortexed for 1 min and centrifuged at 12000 rpm for 10 min at 4° C. 100 μL of the supernatant was taken and placed in a vial insert, and 1 μL of the supernatant was injected for LC-MS/MS analysis.
The pharmacokinetic parameters were calculated by non-compartment model statistical moment method using WinNonlin 6.3 software.

[3] = mean, n = 6, read-out: AUC0-6 h

Row | Structure (SMILES) | Inhibitory rate (basal gastric acid secretion) ([1]; 1 mg/kg intragastric) | Amount of gastric juice ([1]; 1 mg/kg intragastric) | Total acid amount of the gastric juice ([1]; 1 mg/kg intragastric) | Inhibitory rate (basal gastric acid secretion) ([1]; 2 mg/kg intragastric) | Amount of gastric juice ([1]; 2 mg/kg intragastric) | Total acid amount of the gastric juice ([1]; 2 mg/kg intragastric) | Effect on the total acid amount of the gastric juice as compared with the model control group [1] | AUC(0-inf) ([2]; mean) | Cmax ([2]; mean) | Tmax ([2]; mean) | half-life ([2]; mean) | bioavailability [2] | AUC(0-t) [2, 3] | AUC(0-t) ([2]; read-out: AUC0-t in the plasma) | further results
1 | O=C(O)/C=C/C(=O)O.[2H]C([2H])(NC)c1cc(-c2ccccc2F)n(S(=O)(=O)c2cccnc2)c1 [Compound I-1a, 1-[5-(2-fluorophenyl)-1-(pyridin-3-yl-sulfonyl)-1H-pyrrol-3-yl]-N-methyldideuteromethanamine fumarate] | 52.7% | 2.6 ± 0.8 mL | 153.3 ± 85.9 µmol | 95.3% | 1.8 ± 0.9**^Δ mL | 15.3 ± 12.9***^Δ μmol | significant inhibitory effect |  |  |  |  |  |  |  | Effect on the secretion amount of gastric juice as compared with the model control group ([1]; 2 mg/kg, P<0.01): significant inhibitory effect; Inhibitory effects on secretion amount and total acid amount of gastric juice compared with same dosage of vonoprazan fumarate ([1]; 2 mg/kg, P<0.05): stronger
2 | O=C(O)/C=C/C(=O)O.[2H]C([2H])([2H])NC([2H])([2H])c1cc(-c2ccccc2F)n(S(=O)(=O)c2cccnc2)c1 [Compound I-2a, 1-[5-(2-fluorophenyl)-1-(pyridin-3-yl-sulfonyl)-1H-pyrrol-3-yl]-N-trideuteromethyldideuteromethanamine fumarate] |  |  |  | 95.5% |  |  |  |  |  |  |  |  |  |  | 
3 | O=C(O)/C=C/C(=O)O.[2H]c1nc([2H])c(S(=O)(=O)n2cc(C([2H])([2H])NC([2H])([2H])[2H])cc2-c2ccccc2F)c([2H])c1[2H] [Compound I-4a, 1-[5-(2-fluorophenyl)-1-(tetradeuteropyridin-3-yl-sulfonyl)-1H-pyrrol-3-yl]-N-trideuteromethyldideuteromethanamine fumarate] |  |  |  | 97.4% |  |  |  |  |  |  |  |  |  |  | 
4 | CNCc1cc(-c2ccccc2F)n(S(=O)(=O)c2cccnc2)c1 [TAK-438, 1-[5-(2-fluorophenyl)-1-(pyridin-3-yl-sulfonyl)-1H-pyrrol-3-yl]-N-methylmethanamine, reference compound] |  |  |  |  |  |  |  | 45 ng·h/mL | 67.3 ng/mL | 15 min | 47.8 min | 33.5% | 44.6 ng·h/mL | 45 ng·h/mL | 
5 | [2H]C([2H])(NC)c1cc(-c2ccccc2F)n(S(=O)(=O)c2cccnc2)c1 [TAK-438d2, 1-[5-(2-fluorophenyl)-1-(pyridin-3-yl-sulfonyl)-1H-pyrrol-3-yl]-N-methyldideuteromethanamine] |  |  |  |  |  |  |  | 56.4 ng·h/mL | 74.9 ng/mL | 15 min | 57.7 min | 42.9% | 56.2 ng·h/mL | 56.4 ng·h/mL | 
6 | CNCc1cc(-c2ccccc2F)n(S(=O)(=O)c2cccnc2)c1 [vonoprazan fumarate, reference compound] | 43.1% | 3.1 ± 1.2 mL | 184.2 ± 83.4 µmol | 73.8% | 3.0 ± 1.3 mL | 84.9 ± 83.2 µmol | significant inhibitory effect |  |  |  |  |  |  |  | 
